Assay results as given in patent US20220062233A1 (The Board of Trustees of the Leland Stanford Junior …, priority 2018, published 2022).
Read-outs that look alike come from different tables or passages of the source.

Experiments:
M2-8 cells = assay: M2-8 Cell viability Assay; type: cell-based; conditions: at the concentration of 1000 nM
[1] = target: T1, interaction between Supt4h and NGN (subunit of Supt5h) (Homo sapiens, UniProt O00267+P63272); assay: Split Gaussia luciferase complementation assay (M2-8 Luciferase); type: cell-based; conditions: M2-8 cells
T1 construct: expressed in transfected cells
Protocol: A. Split Gaussia Luciferase Complementation Assay […]
i: pNBR-X1-Supt4-Gluc1 and pNEBR-X1-NGN-Gluc2
The HA-Supt4h and Flag-NGN fragments are amplified by PCR using the plasmid pHA-Supt4h-YC and pFlag-NGN-YN and sub-cloned individually into pcDNA3.1-Gluc1 and pcDNA3.1-Gluc2 (described in “A highly sensitive protein-protein interaction assay based on Gaussia luciferase” published at Nat Methods. 2006 December; 3(12):977-9. Epub 2006 Nov. 12). Then HA-Supt4h-Gluc1 and Flag-NGN-Gluc2 are amplified by PCR and inserted to pNEBR-X1-Hygro (New England BioLabs), which contain RheoSwitch responsive element under the control of RheoSwitch ligand. […]
ii: pNEBR-X1-Supt4h-G1-NGN-G2
PCR products containing the sequence from 5XRE to polyA in pNEBR-X1-NGN-G2 are inserted to pNEBR-X1-Supt4h-G1 at Pcil site to generate Supt4h-G1 and NGN-G2 bidirectional under their own RheoSwitch responsive element and polyA in the same plasmid. […]
b. Stable Cloned Cell Line i: 293-R1 is a cloned cell line which is engineered to constitutively express RSL1 receptor/activator by transfecting HEK 293 cells with pNEBR-R1 plasmid (New England BioLabs) and selected with blasticidin. […]
ii: M2-8 is a cloned 293-R1 cell which can inducibly express pNEBR-X1-Supt4h-G1-NGN-G2 by addition of RSL1. Two point mutations ([…] and M110I) are introduced to the GL1 and GL2 for better stability according to “A high-throughput cell-based Gaussia luciferase reporter assay for identifying modulators of fibulin-3 secretion” published in J Biomol Screen. 2013 July; 18(6):647-58. The cell line is selected by hygromycin. […]
c. Cell Culture and Transfection Condition
All the HEK-293 cells and derivative clones are maintained in DMEM containing 10% FBS plus corresponding antibiotics (250 μg/ml hygromycin B, 10 μg/ml blasticidin or both) at 37° C., 5% CO2. All the transfections are done by using Lipofectamine 2000 (Invitrogen) according to the manufacturer's instructions. […]
d. Bioluminescence Assay from Cell Lysates
Plasmids harboring the Gluc1 and Gluc2 are co-transfected in a 1:1 ratio into 293-R1 cells plated on tissue culture treated 24-well plates using Lipofectamine 2000 according to the manufacturer's instructions. For stable M2-8 cells, the cells are directly plated into 96-well or 384-well white plates. Twenty-four hours later, RheoSwitch ligand with or without test compound is added to the cells for induction/drug treatment. After 24 hr, the cells are washed with PBS and the plate was stored at −20° C. overnight. Lysis buffer [30 mM Tris-HCl (pH 8.0) 5 mM NaCl, 0.1% Triton X-100] with 10 μg/ml native coelenterazine (Nanolight Technology) is then added to the cells at room temperature for one hour in the dark. After shaking for about 1 min, 40 μl of cell lysate are transferred to a white 96-well plate. For M2-8 in white micro plate, no transfer is needed. Signal intensities (integrated 100 ms) were read on Tecan Infinite M200 or M1000.
The split Gaussia luciferase complementation assay measures the interaction between Sup4h and NGN. NGN is the subunit of Supt5h that binds to Supt4h.

mutant HTT [2] = assay: Mutant HTT assay in induced pluripotent stem cells (iPSC); type: cell-based, human; conditions: HD patient iPSCs, one day incubation; numeric bounds; read-out: iPSC IC20 (nM) mHTT
Protocol: C. Mutant HTT Assay in Induced Pluripotent Stem Cells (iPSC) a. Cell Culturing and Compound Treatment
Huntington's disease patient iPSCs (ND50036 from NINDS) were detached into single cells by Accutase (25058CI from Corning), counted and plated on a 24-well plate coated with Matrigel (354277 from Corning) at density of 7,000 cells/well. After 48 hrs, compounds were added to the cell culture medium mTeSR1 (85850 from StemCell Technologies) and the cells were incubated for one day. The medium was then removed, and the cells were washed with PBS. After all liquid was removed, the plate was placed at −80° C. overnight. Lysis buffer [30 mM Tris-HCl (pH 8.0), 5 mM NaCl, 0.1% Triton X-100] with the complete proteinase inhibitor cocktail (5892791001 from Sigma-Aldrich) was then added to the cells. Cell samples were lysed on an orbital plate shaker at 4° C. at 700 rpm for 30 min. The supernatants from spinning (14 k rpm for 10 min) were collected. The protein concentrations were determined by BCA assay (23225 from Pierce, ThermoFisher). […]
b. Detection of Mutant HTT Protein
Equal amounts of protein lysate collected from each sample were added to a 96-well plate that had been coated with a human HTT specific monoclonal antibody. After washing away any unbound substances, a biotinylated anti-human mutant HTT specific detection antibody was added. Streptavidin-horseradish peroxidase was subsequently added, followed by TMB Substrate Solution, which yielded a blue product that turns yellow when the Stop Solution was added. The intensity of the color measured was in proportion to the amount of mutant HTT bound in the initial step. The mutant HTT values are then interpolated from a standard curve.

wild-type HTT = assay: Wild-type HTT assay in lymphoblastoid cells (LBC), Western blot; type: cell-based, human
Protocol: (§1) B. Mutant and Wild-Type HTT Assay in Lymphoblastoid Cells (LBC)
(§2) a. Cell Culturing and Compound Treatment
(§3) Lymphoblastoid cells derived from a Huntington's disease patient with 250 CAG repeats in the mutant HTT allele (GM14044 from Coriell Institute) were cultured in RPMI 1640 (Corning Cellgro, 10-040-CV) containing fetal bovine serum (Atlanta Biologicals, S11150). 4×10^5 cells were seeded on a 24-well plate and incubated with testing compound for 3 days. The cell suspension was then transferred to a 1.5 ml Eppendorf tube. Cells were collected by centrifugation and washed once with PBS. After all liquid was removed, the cell pellet was placed at −80° C. for at least 10 minutes. Lysis buffer [30 mM Tris-HCl (pH 8.0), 5 mM NaCl, 0.1% Triton X-100] with the proteinase inhibitor cocktail (P8340 from Sigma-Aldrich) was then added to the cells. Following centrifugation (14 k rpm for 15 min at 4° C.), the supernatant was collected. The protein concentrations were determined by BCA assay (Pierce, ThermoFisher).
(§4) Equal amounts of protein were loaded onto 4-12% gel (Invitrogen, WG1403A). After electrophoresis, the gels were transferred to nitrocellulose membranes by wet transfer at 72V for 3 hrs. […] The protein levels of mutant HTT, wild-type HTT, TBP, and tubulin were determined by immunoblotting with anti-polyQ specific antibody (clone MW1), anti-Huntingtin antibody (Abcam, ab45169), anti-TBP antibody (Sigma, T1827) and anti-alpha tubulin antibody (Sigma, T9026). Blots were imaged on a Li-Cor Odyssey infrared imager. The band intensities were determined by Li-Cor Odyssey software.

mutant HTT [3] = assay: Mutant HTT assay in lymphoblastoid cells (LBC), Western blot; type: cell-based, human; conditions: read-out: LBC IC20 (nM) mHTT, 3 days compound treatment
Protocol: as §1, §2, §3, §4

[4] = tested on: Lymphoblastoid cells (GM14044); assay: LBC cell viability (Cell Titer-Glo); type: cell-based, human; conditions: at the concentration of IC20, 3-day compound treatment
Protocol: Cell viability was determined by Cell Titer-Glo reagent (Promega, PRG9243). After 3-day compound treatment, 15 μl of cell suspension was taken out from plate and incubated with 10 μl of CTG reagent. The values of reaction mixture were detected by Tecan.

[5] = 3 days compound treatment, read-out: LBC IC20 (nM) wtHTT

| SMILES | M2-8 Cell viability (M2-8 cells) | IC50 [1] [nM] | IC20 (mutant HTT [2]) [nM] | IC20 (wild-type HTT; [5]) [nM] | IC20 (mutant HTT [3]) [nM] | LBC viability at IC20 [4] | IC20 (wild-type HTT; read-out: LBC IC20 (nM) wtHTT, 3 days compound treatment) [nM] |
| --- | --- | --- | --- | --- | --- | --- | --- |
| OB(O)c1cccc(CN[C@@H]2CCCc3c2[nH]c2ccc(Br)cc32)c1 (single isomer, unassigned) [Compound 39] | + (cell viability is greater than 50% at the concentration of 1000 nM) | ≤ 100 | > 100 | > 1000 | > 1000 |  |  |
| COCC(N[C@@H]1CCCc2c1[nH]c1ccc(Br)cc21)c1ccc(C(C)(C)O)cc1 (single isomer, unassigned) [Compound 53] | + (cell viability is greater than 50% at the concentration of 1000 nM) | 101 to 300 | > 100 | > 500 | > 1000 |  |  |
| Brc1ccc2[nH]c3c(c2c1)CCC[C@H]3NCc1cccc2ccccc12 [Compound 19, (R)-6-bromo-N-(naphthalen-1-ylmethyl)-2,3,4,9-tetrahydro-1H-carbazol-1-amine] | + (cell viability is greater than 50% at the concentration of 1000 nM) | ≤ 100 |  | > 1000 | 101 to 300 | * (cell viability is greater than 60% at the concentration of IC20) |  |
| Nc1ccc(CN[C@@H]2CCCc3c2[nH]c2ccc(Br)cc32)cc1 [Compound 21, (R)—N-(4-aminobenzyl)-6-bromo-2,3,4,9-tetrahydro-1H-carbazol-1-amine] | + (cell viability is greater than 50% at the concentration of 1000 nM) | ≤ 100 |  | > 1000 | 101 to 300 | * (cell viability is greater than 60% at the concentration of IC20) |  |
| COc1cccc(CN[C@@H]2CCCc3c2[nH]c2ccc(Br)cc32)c1 [Compound 24, (R)-6-bromo-N-(3-methoxybenzyl)-2,3,4,9-tetrahydro-1H-carbazol-1-amine] | + (cell viability is greater than 50% at the concentration of 1000 nM) | ≤ 100 |  | > 1000 | 101 to 300 | * (cell viability is greater than 60% at the concentration of IC20) |  |
| COc1ccc(CN[C@@H]2CCCc3c2[nH]c2ccc(Br)cc32)cc1 [Compound 25, (R)-6-bromo-N-(4-methoxybenzyl)-2,3,4,9-tetrahydro-1H-carbazol-1-amine] | + (cell viability is greater than 50% at the concentration of 1000 nM) | 101 to 300 |  | > 1000 | 301 to 1000 | * (cell viability is greater than 60% at the concentration of IC20) |  |
| N#Cc1ccc(CN[C@@H]2CCCc3c2[nH]c2ccc(Br)cc32)cc1 [Compound 26, (R)-4-(((6-bromo-2,3,4,9-tetrahydro-1H-carbazol-1-yl)amino)methyl)benzonitrile] | + (cell viability is greater than 50% at the concentration of 1000 nM) | 101 to 300 |  |  | 101 to 300 | * (cell viability is greater than 60% at the concentration of IC20) | > 1000 |
| COCc1ccc(CN[C@@H]2CCCc3c2[nH]c2ccc(Br)cc32)cc1 [Compound 27, (R)-6-bromo-N-(4-(methoxymethyl)benzyl)-2,3,4,9-tetrahydro-1H-carbazol-1-amine] | + (cell viability is greater than 50% at the concentration of 1000 nM) | ≤ 100 |  | > 1000 | 101 to 300 | * (cell viability is greater than 60% at the concentration of IC20) |  |
| COCC(N[C@@H]1CCCc2c1[nH]c1ccc(Br)cc21)c1ccc(CN2CCOCC2)cc1 (stereo partly shown) [Compound 61] | + (cell viability is greater than 50% at the concentration of 1000 nM) | 101 to 300 |  |  |  |  |  |
| COCC(N[C@@H]1CCCc2c1[nH]c1ccc(Br)cc21)c1ccc(CN2CCN(C(C)=O)CC2)cc1 (stereo partly shown) [Compound 62] | + (cell viability is greater than 50% at the concentration of 1000 nM) | 101 to 300 |  |  |  |  |  |
| OCCOCc1ccc(CN[C@@H]2CCCc3c2[nH]c2ccc(Br)nc32)cc1 [Compound 64] | + (cell viability is greater than 50% at the concentration of 1000 nM) | 101 to 300 |  |  |  |  |  |
| OCc1ccc(CN[C@@H]2CCCc3c2[nH]c2ccc(Br)nc32)s1 [Compound 67] | + (cell viability is greater than 50% at the concentration of 1000 nM) | ≤ 100 |  |  |  |  |  |
| Brc1ccc2[nH]c3c(c2c1)CCC[C@H]3NCc1ccc(CN2CCOCC2)cc1 [Compound 72] | + (cell viability is greater than 50% at the concentration of 1000 nM) | ≤ 100 |  |  |  |  |  |
| CC(=O)N1CCN(Cc2ccc(CN[C@@H]3CCCc4c3[nH]c3ccc(Br)cc43)cc2)CC1 [Compound 73] | + (cell viability is greater than 50% at the concentration of 1000 nM) | 101 to 300 |  |  |  |  |  |
